Laboratory results: patent US20220202810A1 (Lake O'Hara LLC, priority 2020, published 2022)
Like-named read-outs stand apart in the source and are kept apart here.

Columns and labels:
[1] = PBPK modeling of schizophrenia patients, FDA label and modified dosing regimens; parameters: species or system human; conditions: for Days Reduced to Reach Pharmacokinetic Endpoints: EC50 / Days Reduced to Reach Pharmacokinetic Endpoints: EC80 / Days Reduced to Reach Pharmacokinetic Endpoints: Steady State: modified regimen of Table F vs FDA label, Obese
Text: PBPK Modeling of Patients Dosed with Brexpiprazole According to the FDA Label
Although the PBPK modeling was based on the dosing regimen for schizophrenia according to the FDA label (REXULTI®, 3/2020), pharmacokinetic parameters are dose-dependent and expected to be similar in MDD.
In order to simulate brexpiprazole under various conditions, a whole-body PBPK model was constructed to capture the drug's kinetics in major tissues. Model tissue compartments included adipose, bone, brain, large intestine, small intestine, heart, kidney, liver, lung, muscle, spleen, stomach, and skin tissues, as well as venous and arterial blood compartments. In order to accurately capture first-pass clearance effects on the drug, the model also included correct representation of the gastrointestinal tract organs and the liver. […] Drug distribution into each tissue compartment was modeled assuming perfusion-limited kinetics, with partitioning into tissue described by a partition coefficient (Kp) estimated using methods described by Poulin and Theil (2002). Brexpiprazole-specific biochemical parameters such as the log of octanol:water partition coefficient (logP), negative log acid dissociation constant (pKa), fraction unbound in the plasma (fup), blood:plasma concentration ratio (BP), and clearance were obtained from literature; additional physiochemical properties used to calculate Kps were obtained via DrugBank. […] Simulations were carried out in a virtual population of 500 normal-weight and 500 obese individuals with age- and sex-specific physiological parameters (i.e. tissue flows and volumes) sampled from the National Health and Nutrition Examination Survey (NHANES) dataset.
PBPK Modeling of Schizophrenia Patients Treated with Higher Doses According to Modified Methods
A modified dosing regimen was developed so that obese and CYP2D6 PM patients reach therapeutic levels earlier (Table F). […] On day 8, patients returned to administering the recommended dose once daily. […] On day 15, patients returned to administering the recommended dose once daily.

[2] = brexpiprazole patients; cited from earlier work
[3] = cited from earlier work
[4] = cited from earlier work; remark: listed apart in the source

O=c1ccc2ccc(OCCCCN3CCN(c4cccc5sccc45)CC3)cc2[nH]1 [Brexpiprazole, 7-{4-[4-(1-Benzothiophen-4-yl)piperazin-1-yl]butoxy}quinolin-2(1H)-one]
Days Reduced to Reach Pharmacokinetic Endpoints: EC50 ([1]; EM): 3 days | Days Reduced to Reach Pharmacokinetic Endpoints: EC80 ([1]; EM): 3 days | Days Reduced to Reach Pharmacokinetic Endpoints: Steady State ([1]; EM): -4 days | Days Reduced to Reach Pharmacokinetic Endpoints: EC50 ([1]; PM): 2 days | Days Reduced to Reach Pharmacokinetic Endpoints: EC80 ([1]; PM): 5 days | Days Reduced to Reach Pharmacokinetic Endpoints: Steady State ([1]; PM): -29 days | time to reach therapeutic concentrations vs once daily dosing ([1]; schizophrenia, normal-weight CYP2D6 PM, Modified Dosing Regimen 3): three days faster | time to reach therapeutic concentrations vs FDA label dosing ([1]; schizophrenia, obese CYP2D6 EM, twice the starting and recommended daily doses for the first 7 days): three days faster | time to reach therapeutic concentrations vs once daily dosing ([1]; schizophrenia, obese CYP2D6 PM, twice the starting and recommended daily doses for the first 14 days): five days faster | akathisia rates [2]: dose-dependent | decrease of baseline clearance by CYP2D6 PM status ([3]; CYP2D6 PM): ~30% | brexpiprazole clearance due to CYP3A4 ([3]; based on the literature): 46.7% | clearance due to other routes ([3]; based on the literature): 10% | remaining clearance due to CYP2D6 ([3]; based on the literature): 43.3% | effect of weight on the pharmacokinetics of brexpiprazole ([3]; previous studies, no patients with BMI>35 kg/m^2): less than 20% | renal clearance ([3]; share of brexpiprazole clearance): ~1% | AUC Observed ([4]; NDA Study1, IV, 0.25 mg): 172 ng·h/mL | Cmax Observed ([4]; NDA Study1, IV, 0.25 mg): 4.73 ng/mL | Tmax Observed ([4]; NDA Study1, IV, 0.25 mg): 1 h | AUC Observed ([4]; NDA Study1, PO, 0.2 mg): 123 ng·h/mL | Cmax Observed ([4]; NDA Study1, PO, 0.2 mg): 2.62 ng/mL | Tmax Observed ([4]; NDA Study1, PO, 0.2 mg): 2 h | AUC Observed ([4]; NDA Study1, PO, 0.5 mg): 287 ng·h/mL | Cmax Observed ([4]; NDA Study1, PO, 0.5 mg): 6.64 ng/mL | Tmax Observed ([4]; NDA Study1, PO, 0.5 mg): 4 h | AUC Observed ([4]; NDA Study1, PO, 1 mg): 636 ng·h/mL | Cmax Observed ([4]; NDA Study1, PO, 1 mg): 11.70 ng/mL | Tmax Observed ([4]; NDA Study1, PO, 1 mg): 6 h | AUC Observed ([4]; NDA Study1, PO, 2 mg): 1690 ng·h/mL | Cmax Observed ([4]; NDA Study1, PO, 2 mg): 22.10 ng/mL | Tmax Observed ([4]; NDA Study1, PO, 2 mg): 6 h | AUC Observed ([4]; NDA Study2, PO, 2 mg): 2160 ng·h/mL | Cmax Observed ([4]; NDA Study2, PO, 2 mg): 24.60 ng/mL | Tmax Observed ([4]; NDA Study2, PO, 2 mg): 4 h | AUC Observed ([4]; NDA Study2, PO, 4 mg): 2760 ng·h/mL | Cmax Observed ([4]; NDA Study2, PO, 4 mg): 47.20 ng/mL | Tmax Observed ([4]; NDA Study2, PO, 4 mg): 6 h | AUC Observed ([4]; NDA Study2, PO, 6 mg): 5230 ng·h/mL | Cmax Observed ([4]; NDA Study2, PO, 6 mg): 71.10 ng/mL | Tmax Observed ([4]; NDA Study2, PO, 6 mg): 6 h | AUC Observed ([4]; NDA Study2, PO, 8 mg): 7920 ng·h/mL | Cmax Observed ([4]; NDA Study2, PO, 8 mg): 79.20 ng/mL | Tmax Observed ([4]; NDA Study2, PO, 8 mg): 6 h
